Experiment [1] has as its target DDR2 tyrosine kinase (Homo sapiens (Human), UniProt Q16832). As to the kind of experiment: in vitro DDR2 tyrosine kinase inhibition (GST-fused kinase domain). It counts as biochemical. Particulars: read-out: % inhibition against DDR2.
Experiment [2] has as its target c-Src tyrosine kinase (Homo sapiens (Human), UniProt P12931). As to the kind of experiment: in vitro c-Src tyrosine kinase inhibition (32P-ATP, poly(D4Y)n substrate). It is filed as biochemical. Conditions: read-out: % inhibition against c-Src.
The target of experiment [3] is Lyn tyrosine kinase (Homo sapiens (Human), UniProt P07948). As to the kind of experiment: in vitro Lyn tyrosine kinase inhibition. Particulars: read-out: % inhibition against Lyn. It counts as biochemical.
Chain of Lyn tyrosine kinase (P07948 whole entry): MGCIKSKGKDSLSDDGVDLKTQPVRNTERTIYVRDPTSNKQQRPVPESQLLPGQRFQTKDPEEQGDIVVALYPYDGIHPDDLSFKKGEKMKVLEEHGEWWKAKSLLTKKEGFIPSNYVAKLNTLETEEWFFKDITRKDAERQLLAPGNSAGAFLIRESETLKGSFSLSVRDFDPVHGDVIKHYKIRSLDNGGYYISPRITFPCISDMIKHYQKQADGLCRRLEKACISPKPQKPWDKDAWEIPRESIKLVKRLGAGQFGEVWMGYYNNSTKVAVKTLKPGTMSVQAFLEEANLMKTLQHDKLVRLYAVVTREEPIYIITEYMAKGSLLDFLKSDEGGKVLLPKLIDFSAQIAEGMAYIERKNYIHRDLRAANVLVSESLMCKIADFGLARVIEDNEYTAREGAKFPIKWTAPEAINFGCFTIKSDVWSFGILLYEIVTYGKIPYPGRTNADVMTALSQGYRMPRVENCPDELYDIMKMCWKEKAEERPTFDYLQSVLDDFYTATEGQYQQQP
Experiment [4] addresses Fgr tyrosine kinase (Homo sapiens (Human), UniProt P09769). The experiment can be described thus: in vitro Fgr tyrosine kinase inhibition. It counts as biochemical. Particulars: read-out: % inhibition against Fgr.
In experiment [5] the test system is TNF-α synthesis in J744A.1 macrophages. The experiment can be described thus: inhibition of TNF-α synthesis in LPS-activated macrophages (ELISA). It counts as cell-based. Conditions: Macrophage, read-out: Inhibition (%) of TNF-α synthesis. (In an ELISA, binding on a coated surface is turned into a signal by an enzyme label.)
Experiment [6] has as its system NO synthesis in J744A.1 macrophage. The experiment can be described thus: inhibition of nitric oxide (NO) synthesis in LPS-activated macrophages (Griess reagent). It counts as cell-based. Particulars: read-out: Inhibition (%) of NO synthesis.
Experiment [7] relates to oxazolone-induced skin inflammation of Balb/C mouse ears. As to the kind of experiment: mouse skin inflammatory model induced by oxazolone (ear thickness). It is filed as in vivo. Particulars: 20 ul of 0.1% compound topical on ear, 36 hours after oxazolone. Here is the method: The compounds of the present invention were evaluated for their effective anti-inflammatory activity using a skin inflammatory animal model of 8 weeks old Balb/C mouse ears induced by oxazolone. […] After 4 days, the thickness of ear was measured using a caliper for the thickness value of ear before the induction of inflammation. […] After 36 hours, the thickness of ear was measured for the increased thickness induced by inflammation. […] The average value was obtained in each group (n=4).

Experiment [8] has as its system α-smooth muscle actin protein expression in skin fibroblast cells. The experiment can be described thus: inhibition of α-smooth muscle actin expression in fibroblast activated by type I collagen and TGF-β1 (western blotting). Particulars: Mus musculus, read-out: Inhibition (%) of α-smooth muscle actin increase. It counts as cell-based, Balb/C mouse. From the text:
When fibroblast, […] alpha smooth muscle cells are converted to myofibroblast by activation, one of characteristic features is that α-smooth muscle actin protein expression is increased. Also myoblast cells with the increased α-smooth muscle actin expression have a character of an increased migration. These phenomena appear together with the activation of inflammatory cells and the activated myoblast-type cells are known to contribute directly to the pathology of inflammatory diseases. […] In this experiment, the expression level of alpha smooth muscle actin can be quantificated by measuring the density of α-smooth muscle actin protein band with densitometer after developing the X-ray film of chemiluminescence signal in western blotting experiment.
Background: A western blot detects proteins with antibodies after separation by electrophoresis.

The subject of experiment [9] is mouse skin fibroblast. As to the kind of experiment: inhibition of migration of activated fibroblast (scratch wound). It is filed as cell-based. Particulars: read-out: Inhibition (%) of migration of activated fibroblast. As to the method:
The straight line of regular width was made using a micro pipette tip for a scratch wound on the mono-layer culture, and then the culture was exchanged to DMEM medium and incubated with 10 ng/ml of TGF-β1 in cell culture incubator of 37° C. for 24 hours. The cultured cells were fixed using formalin and stained with crystal violet. Photo-pictures were taken at 100× magnification in five location selected randomly in the scratched wound site of each stained culture dish and then the number of the cells moved into the scratched wound area was counted and averaged.

The target in experiment [10] is DDR1 tyrosine kinase (Homo sapiens (Human), UniProt Q08345). The experiment can be described thus: in vitro DDR1 tyrosine kinase inhibition (GST-fused kinase domain). Particulars: read-out: % inhibition against DDR1. It is filed as biochemical.
Chain of DDR1 tyrosine kinase (Q08345 610-905): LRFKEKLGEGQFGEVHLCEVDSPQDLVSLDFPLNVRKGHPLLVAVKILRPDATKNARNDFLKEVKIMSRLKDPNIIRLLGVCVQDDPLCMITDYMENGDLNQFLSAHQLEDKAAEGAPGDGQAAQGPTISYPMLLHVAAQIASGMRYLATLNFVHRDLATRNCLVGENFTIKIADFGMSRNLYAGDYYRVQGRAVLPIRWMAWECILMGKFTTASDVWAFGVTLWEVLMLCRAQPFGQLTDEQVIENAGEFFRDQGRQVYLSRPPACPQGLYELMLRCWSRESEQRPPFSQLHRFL
Experiment [11] deals with Hck tyrosine kinase (Homo sapiens (Human), UniProt P08631). The experiment can be described thus: in vitro Hck tyrosine kinase inhibition. It is filed as biochemical. Particulars: read-out: % inhibition against Hck.
Chain of Hck tyrosine kinase (P08631 whole entry): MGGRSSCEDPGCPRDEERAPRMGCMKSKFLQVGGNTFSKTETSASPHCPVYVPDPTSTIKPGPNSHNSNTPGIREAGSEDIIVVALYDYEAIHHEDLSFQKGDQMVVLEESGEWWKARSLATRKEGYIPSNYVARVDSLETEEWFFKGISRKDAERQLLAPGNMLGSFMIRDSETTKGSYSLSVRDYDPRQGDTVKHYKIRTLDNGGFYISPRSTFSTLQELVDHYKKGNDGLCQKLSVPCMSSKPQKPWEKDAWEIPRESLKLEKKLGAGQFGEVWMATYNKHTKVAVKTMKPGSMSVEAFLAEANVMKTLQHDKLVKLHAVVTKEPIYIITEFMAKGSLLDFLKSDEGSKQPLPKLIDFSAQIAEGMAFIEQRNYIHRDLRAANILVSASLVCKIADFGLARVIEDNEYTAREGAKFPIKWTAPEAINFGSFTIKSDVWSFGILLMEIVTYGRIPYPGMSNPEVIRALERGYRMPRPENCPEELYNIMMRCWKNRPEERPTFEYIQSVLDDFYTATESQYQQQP
Setting [12] is: 10 μM compound, 100 ng/ml LPS, 6 hours.
[13] abbreviates: 0.5 uM compound, 10 ng/ml TGF-β1, 48 hours, type I collagen.
Where [14] appears, read: 0.5 uM compound, 10 ng/ml TGF-β1, 24 hours.

Read-outs that look alike come from different tables or passages of the source.

Chain of DDR2 tyrosine kinase (Q16832 563-849): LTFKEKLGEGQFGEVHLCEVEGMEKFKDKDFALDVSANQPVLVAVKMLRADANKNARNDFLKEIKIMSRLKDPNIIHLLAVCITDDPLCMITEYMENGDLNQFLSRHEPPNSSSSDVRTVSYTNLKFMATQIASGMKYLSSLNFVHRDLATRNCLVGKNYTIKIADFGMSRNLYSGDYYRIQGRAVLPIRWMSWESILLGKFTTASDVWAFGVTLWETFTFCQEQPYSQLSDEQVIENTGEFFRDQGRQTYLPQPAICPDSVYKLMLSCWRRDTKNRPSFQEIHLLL
Chain of c-Src tyrosine kinase (P12931 whole entry, looked up): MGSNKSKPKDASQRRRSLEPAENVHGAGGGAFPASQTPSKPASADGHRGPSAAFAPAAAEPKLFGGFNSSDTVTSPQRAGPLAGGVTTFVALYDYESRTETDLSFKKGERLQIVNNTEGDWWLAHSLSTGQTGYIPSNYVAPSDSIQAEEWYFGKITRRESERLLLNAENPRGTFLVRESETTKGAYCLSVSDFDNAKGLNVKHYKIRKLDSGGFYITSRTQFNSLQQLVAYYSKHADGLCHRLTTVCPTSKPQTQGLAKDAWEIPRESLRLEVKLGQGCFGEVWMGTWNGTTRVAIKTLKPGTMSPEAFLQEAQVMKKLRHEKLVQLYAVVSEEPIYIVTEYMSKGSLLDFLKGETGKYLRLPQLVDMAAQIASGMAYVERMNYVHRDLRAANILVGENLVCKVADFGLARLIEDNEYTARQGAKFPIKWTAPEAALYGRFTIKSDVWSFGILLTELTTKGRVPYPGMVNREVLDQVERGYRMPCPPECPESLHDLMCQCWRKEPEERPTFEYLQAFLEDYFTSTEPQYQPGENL
Chain of Fgr tyrosine kinase (P09769 whole entry): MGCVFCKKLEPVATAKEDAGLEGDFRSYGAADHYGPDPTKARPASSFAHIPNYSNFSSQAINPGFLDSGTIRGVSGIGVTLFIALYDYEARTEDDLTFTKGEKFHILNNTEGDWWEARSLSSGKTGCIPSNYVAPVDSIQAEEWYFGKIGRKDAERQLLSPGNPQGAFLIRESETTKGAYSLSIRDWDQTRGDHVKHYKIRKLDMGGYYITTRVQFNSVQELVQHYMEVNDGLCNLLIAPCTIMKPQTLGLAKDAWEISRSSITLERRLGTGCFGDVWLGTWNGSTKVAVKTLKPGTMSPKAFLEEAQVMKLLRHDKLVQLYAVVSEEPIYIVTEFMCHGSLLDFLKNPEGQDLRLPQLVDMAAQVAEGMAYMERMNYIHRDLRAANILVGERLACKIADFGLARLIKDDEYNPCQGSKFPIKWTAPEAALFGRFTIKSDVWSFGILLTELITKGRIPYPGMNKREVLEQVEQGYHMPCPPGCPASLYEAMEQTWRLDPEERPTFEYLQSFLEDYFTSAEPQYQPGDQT

With `Cc1cc2cc(Nc3ccnc4cc(C(=O)N5CC[C@@H](O)C5)sc34)ccc2n1C(=O)NC1CC1` [Control compound 1, 5-[2-(3R-hydroxy-pyrrolidine-1-carbonyl)-thieno[3,2-b]pyridine-7-ylamino]-2-methyl-indole-1-carboxyacid cycloprophylamide, reference compound], the inhibition at 1 µM in [1], in [2], in experiment [3], in experiment [4], in experiment [10] and in experiment [11] was less than 20% throughout. Besides, the inhibition at 10 µM in experiment [5] (6 h) was 16%; in [6] (24 h), 32%. The “Inhibition (%) of increase of ear thickness” value in experiment [7] is given as 3%. Further, the figures for the inhibition at 0.5 µM in experiment [8] (48 h) and in experiment [9] (24 h) were 16% and 17%, respectively.
Regarding `COC[C@@H]1CCCN1C(=O)c1cc2nccc(Nc3ccc4c(c3)cc(C)n4C(=O)NC3CC3)c2s1` [Control compound 2, 5-(2-[(S)-2-(methoxymethyl)pyrrolidine-1-carbonyl]thieno[3,2-b]pyridine-7-ylamino)-2-methylindole-1-carboxyacid cycloprophylamide, reference compound], the inhibition at 1 µM in experiment [1] (1 uM compound), in experiment [2] (1 uM compound), in experiment [3] (1 uM compound), in experiment [4] (1 uM compound), in experiment [10] (1 uM compound) and in experiment [11] (1 uM compound) was less than 20% each time. Besides, the inhibition at 10 µM in experiment [5] (setting [12]) is 39%; in [6] (10 μM compound, LPS, 24 hours) it was 45%. For the same molecule, the inhibition at 0.5 µM in [8] (setting [13]) is 22%; in experiment [9] (setting [14]) it was 14%.
As to `CO[C@@H]1C[C@@H](CO)N(C(=O)c2cc3nccc(Nc4ccc5c(c4)cc(C)n5C(=O)NC4CC4)c3s2)C1` [Control compound 3, reference compound], the inhibition at 1 µM in experiment [1] (1 uM compound), in experiment [2] (1 uM compound), in [3] (1 uM compound), in experiment [4] (1 uM compound), in [10] (1 uM compound) and in experiment [11] (1 uM compound) was less than 20% in each case. Besides, the inhibition at 10 µM in experiment [5] (setting [12]) is 19%; in experiment [6] (10 μM compound, LPS, 24 hours), 21%. Also, the “Inhibition (%) of increase of ear thickness” value in experiment [7] was found to be 22%. Also, the inhibition at 0.5 µM in experiment [8] (setting [13]) came to 8%; in experiment [9] (setting [14]) it was 11%.
In the case of `Oc1cccc(Nc2ncnc3cc(-c4ccc(CN5CCOCC5)cc4)sc23)c1` [LCB 03-0032, 3-(6-(4-(morpholinomethyl)phenyl)thieno[3,2-d]pyrimidin-4-ylamino)phenol], the inhibition at 1 µM in [1] (1 uM compound), in experiment [2] (1 uM compound), in experiment [3] (1 uM compound), in experiment [4] (1 uM compound), in experiment [10] (1 uM compound) and in experiment [11] (1 uM compound) was more than 80% in each case. Further, the inhibition at 10 µM in [5] (setting [12]) was 77%; in experiment [6] (10 μM compound, LPS, 24 hours), 92%. In addition, the “Inhibition (%) of increase of ear thickness” value in experiment [7] amounted to 27%. Moreover, the inhibition at 0.5 µM in experiment [8] (setting [13]) was 56%; in experiment [9] (setting [14]), 35%.
With `Oc1cccc(Nc2ncnc3cc(-c4ccc(CN5CCNCC5)cc4)sc23)c1` [LCB 03-0033, 3-(6-(4-(piperazine-1-ylmethyl)phenyl)thieno[3,2-d]pyrimidin-4-ylamino)phenol], the inhibition at 1 µM in [1] (1 uM compound) is more than 80%; in experiment [2] (1 uM compound), more than 60%; in experiment [3] (1 uM compound), more than 60%; in [4] (1 uM compound) it was more than 60%; in experiment [10] (1 uM compound) it was more than 80%; in experiment [11] (1 uM compound), more than 60%. Moreover, the inhibition at 10 µM was found to be 59% in experiment [5] (setting [12]) and 77% in experiment [6] (10 μM compound, LPS, 24 hours). Besides, in experiment [7], the “Inhibition (%) of increase of ear thickness” value stood at 22%. Moreover, the inhibition at 0.5 µM in [8] (setting [13]) was found to be 60%; in experiment [9] (setting [14]) it was 30%.
With `Cl.Oc1cccc(Nc2ncnc3cc(-c4ccc(CN5CCCC5)cc4)sc23)c1` [LCB 03-0034, 3-(6-(4-(pyrrolidin-1-ylmethyl)phenyl)thieno[3,2-d]pyrimidin-4-ylamino)phenol], the inhibition at 1 µM in experiment [1] (1 uM compound) was more than 80%; in experiment [2] (1 uM compound), more than 80%; in [3] (1 uM compound) it was more than 80%; in experiment [4] (1 uM compound), more than 80%; in experiment [10] (1 uM compound) it was more than 80%; in experiment [11] (1 uM compound), more than 70%. For the same molecule, the inhibition at 10 µM in experiment [5] (setting [12]) was 75%; in [6] (10 μM compound, LPS, 24 hours), 90%. Moreover, the “Inhibition (%) of increase of ear thickness” value in experiment [7] worked out at 29%. Also, the inhibition at 0.5 µM amounted to 67% in experiment [8] (setting [13]) and 32% in experiment [9] (setting [14]).
As to `Oc1cccc(Nc2ncnc3cc(-c4ccc(CN5CCCCC5)cc4)sc23)c1` [LCB 03-0035, 3-(6-(4-(piperidin-1-ylmethyl)phenyl)thieno[3,2-d]pyrimidin-4-ylamino)phenol], the inhibition at 1 µM in [1] (1 uM compound), in [2] (1 uM compound), in experiment [3] (1 uM compound), in experiment [4] (1 uM compound), in experiment [10] (1 uM compound) and in experiment [11] (1 uM compound) was more than 80% throughout. The inhibition at 10 µM in experiment [5] (setting [12]) came out at 65%; in experiment [6] (10 μM compound, LPS, 24 hours), 91%. In experiment [7], the “Inhibition (%) of increase of ear thickness” value stood at 31%. For the same molecule, the inhibition at 0.5 µM in experiment [8] (setting [13]) was determined as 55%; in experiment [9] (setting [14]), 31%.
For the molecule `CN1CCN(Cc2ccc(-c3cc4ncnc(Nc5cccc(O)c5)c4s3)cc2)CC1` [LCB 03-0036, 3-(6-(4-((4-methylpiperazin-1-yl)methyl)phenyl)thieno[3,2-d]pyrimidin-4-ylamino)phenol], the inhibition at 1 µM in [1] (1 uM compound), in [2] (1 uM compound), in [3] (1 uM compound), in experiment [4] (1 uM compound), in experiment [10] (1 uM compound) and in [11] (1 uM compound) was more than 80% throughout. The inhibition at 10 µM in experiment [5] (setting [12]) turned out to be 61%; in [6] (10 μM compound, LPS, 24 hours), 81%. Moreover, the “Inhibition (%) of increase of ear thickness” value in [7] was found to be 28%. Also, the inhibition at 0.5 µM in [8] (setting [13]) stood at 63%; in experiment [9] (setting [14]), 39%.
On to `Cl.Oc1cccc(Nc2ncnc3cc(-c4ccc(CN5CCC(O)C5)cc4)sc23)c1` (centres unmarked) [LCB 03-0072, 1-(4-(4-(3-hydroxyphenylamino)thieno[3,2-d]pyrimidin-6-yl)benzyl)pyrrolidin-3-ol], for which the inhibition at 1 µM in [1] (1 uM compound) and in experiment [10] (1 uM compound) was more than 80% in each case. Also, the inhibition at 10 µM in experiment [5] (setting [12]) came to 59%; in experiment [6] (10 μM compound, LPS, 24 hours), 76%. The “Inhibition (%) of increase of ear thickness” value in experiment [7] was 48%. Also, the inhibition at 0.5 µM in experiment [8] (setting [13]) was found to be 39%; in experiment [9] (setting [14]), 27%.
Turning to `CCNCc1ccc(-c2cc3ncnc(Nc4cccc(O)c4)c3s2)s1` [LCB 03-0095, 3-(6-(5-((ethylamino)methyl)thiophene-2-yl)thieno[3,2-d]pyrimidin-4-ylamino)phenol], the inhibition at 1 µM in experiment [1] (1 uM compound) is more than 80%; in [2] (1 uM compound), more than 60%; in [3] (1 uM compound), more than 60%; in [4] (1 uM compound) it was more than 60%; in [10] (1 uM compound) it was more than 80%; in [11] (1 uM compound), more than 50%. Also, the inhibition at 10 µM in [6] (24 h) was 59%. Besides, the “Inhibition (%) of increase of ear thickness” value in experiment [7] came to 43%. The inhibition at 0.5 µM worked out at 37% in experiment [8] (setting [13]) and 23% in experiment [9] (setting [14]).

Source of the values: US9062066B2, “Anti-inflammatory compound having inhibitory activity against multiple tyrosine kinases and pharmaceutical composition containing same” (KOREA INSTITUTE OF SCIENCE AND TECHNOLOGY, priority 2010, dated 2015).
